Results from patent publication US10238670B2, “9-aminomethyl minocycline compounds and methods of use thereof in urinary tract infection (UTI) treatment” (Paratek Pharmaceuticals, Inc., priority 2016, dated 2019).
≈ marks a conversion by molar mass, not a printed value. Like-named read-outs stand apart in the source and are kept apart here.

What was measured:
[1] = tested on: human plasma protein; settings: cited from earlier work
[2] = tested on: E. coli ESBL−; experiment: In vitro MIC, 2010 surveillance isolates; type: cell-based, Escherichia coli
[3] = tested on: E. coli ESBL+; experiment: In vitro MIC, 2010 surveillance isolates; type: cell-based, Escherichia coli
[4] = tested on: K. pneumoniae ESBL−; experiment: In vitro MIC, 2010 surveillance isolates; type: cell-based, Klebsiella pneumoniae
[5] = tested on: K. pneumoniae ESBL+; experiment: In vitro MIC, 2010 surveillance isolates; type: cell-based, Klebsiella pneumoniae
[6] = tested on: K. oxytoca; experiment: In vitro MIC, 2010 surveillance isolates; type: cell-based
[7] = tested on: E. cloacae CeftazS; experiment: In vitro MIC, 2010 surveillance isolates; type: cell-based
[8] = tested on: E. cloacae CeftazR; experiment: In vitro MIC, 2010 surveillance isolates; type: cell-based
[9] = tested on: Enterobacter spp; experiment: In vitro MIC, 2010 surveillance isolates; type: cell-based
[10] = tested on: A. baumanii; experiment: In vitro MIC, 2010 surveillance isolates; type: cell-based
[11] = tested on: Acinetobacter spp; experiment: In vitro MIC, 2010 surveillance isolates; type: cell-based
[12] = tested on: MSSA; experiment: In vitro MIC, 2010 surveillance isolates; type: cell-based
[13] = tested on: MRSA; experiment: In vitro MIC, 2010 surveillance isolates; type: cell-based
[14] = tested on: MS CoNS; experiment: In vitro MIC, 2010 surveillance isolates; type: cell-based, Coagulase-Negative Staphylococcus
[15] = tested on: MR CoNS; experiment: In vitro MIC, 2010 surveillance isolates; type: cell-based, Coagulase-Negative Staphylococcus
[16] = tested on: E. faecalis VS; experiment: In vitro MIC, 2010 surveillance isolates; type: cell-based; settings: for % R (resistance): CLSI breakpoints
[17] = tested on: E. faecalis VNS; experiment: In vitro MIC, 2010 surveillance isolates; type: cell-based; settings: for % R (resistance): CLSI breakpoints
[18] = tested on: E. faecium VS; experiment: In vitro MIC, 2010 surveillance isolates; type: cell-based; settings: for % R (resistance): CLSI breakpoints
[19] = tested on: E. faecium VNS; experiment: In vitro MIC, 2010 surveillance isolates; type: cell-based; settings: for % R (resistance): CLSI breakpoints

## CC(=O)NC[C@H]1CN(c2ccc(N3CCOCC3)c(F)c2)C(=O)O1 [Linezolid]
[1]; human, plasma
  protein bound in human plasma: 31%

## Cn1nnc(-c2ccc(-c3ccc(N4C[C@H](CO)OC4=O)cc3F)cn2)n1 [tedizolid]
[1]
  protein bound in human plasma: > 75%

## CCCCCCCCCC(=O)N[C@@H](Cc1c[nH]c2ccccc12)C(=O)N[C@H](CC(N)=O)C(=O)N[C@@H](CC(=O)O)C(=O)N[C@@H]1C(=O)NCC(=O)N[C@@H](CCCN)C(=O)N[C@@H](CC(=O)O)C(=O)N[C@H](C)C(=O)N[C@@H](CC(=O)O)C(=O)NCC(=O)N[C@H](CO)C(=O)N[C@@H]([C@H](C)CC(=O)O)C(=O)N[C@@H](CC(=O)c2ccccc2N)C(=O)O[C@@H]1C [Daptomycin]
[1]
  protein bound in human plasma: > 75%

## Nc1nc(-n2cc(C(=O)O)c(=O)c3cc(F)c(N4CC(O)C4)c(Cl)c32)c(F)cc1F [delafloxacin]
[1]
  protein bound in human plasma: > 75%

## CN(C)c1ccc(O)c2c1C[C@H]1C[C@H]3[C@H](N(C)C)C(O)=C(C(N)=O)C(=O)[C@@]3(O)C(O)=C1C2=O [Minocycline]
[1]; human, plasma
  human plasma protein binding, Mean: 76%

## C[C@H]1COc2c(N3CCN(C)CC3)c(F)cc3c(=O)c(C(=O)O)cn1c23 [Levofloxacin]
[2]; Asia/Pac, Eucast breakpoints
  % R (resistance): 17%
[2]; Asia/Pac, N=282
  MIC90: > 4 µg/mL
[2]; Europe, Eucast breakpoints
  % R (resistance): 19.3%
[2]; Europe, N=1533
  MIC90: > 4 µg/mL
[2]; L. Amer, CLSI breakpoints
  % R (resistance): 22.9%
[2]; L. Amer, N=389
  MIC90: > 4 µg/mL
[2]; N America, CLSI breakpoints
  % R (resistance): 21.9%
[2]; N America, N=1172
  MIC90: > 4 µg/mL
[3]; Asia/Pac, Eucast breakpoints
  % R (resistance): 78.1%
[3]; Asia/Pac, N=219
  MIC90: > 4 µg/mL
[3]; E. coli
  resistance rates for ESBL-producing clinical isolates: 76.5%
[3]; Escherichia coli, ESBL-producing E. coli, read-out: MIC90
  MIC90: > 4 µg/mL
[3]; Europe, Eucast breakpoints
  % R (resistance): 79.2%
[3]; Europe, N=274
  MIC90: > 4 µg/mL
[3]; L. Amer, CLSI breakpoints
  % R (resistance): 81%
[3]; L. Amer, N=168
  MIC90: > 4 µg/mL
[3]; N America, CLSI breakpoints
  % R (resistance): 74.6%
[3]; N America, N=134
  MIC90: > 4 µg/mL
[4]; Asia/Pac, Eucast breakpoints
  % R (resistance): 5.3%
[4]; Asia/Pac, N=189
  MIC90: 1 µg/mL (≈ 2.77 µM)
[4]; Europe, Eucast breakpoints
  % R (resistance): 4.2%
[4]; Europe, N=361
  MIC90: ≤ 0.5 µg/mL
[4]; L. Amer, CLSI breakpoints
  % R (resistance): 7.5%
[4]; L. Amer, N=160
  MIC90: 1 µg/mL (≈ 2.77 µM)
[4]; N America, CLSI breakpoints
  % R (resistance): 1.9%
[4]; N America, N=671
  MIC90: ≤ 0.5 µg/mL
[5]; Asia/Pac, Eucast breakpoints
  % R (resistance): 61.3%
[5]; Asia/Pac, N=124
  MIC90: > 4 µg/mL
[5]; Europe, Eucast breakpoints
  % R (resistance): 66.9%
[5]; Europe, N=151
  MIC90: > 4 µg/mL
[5]; L. Amer, CLSI breakpoints
  % R (resistance): 67.9%
[5]; L. Amer, N=209
  MIC90: > 4 µg/mL
[5]; N America, CLSI breakpoints
  % R (resistance): 75%
[5]; N America, N=108
  MIC90: > 4 µg/mL
[6]; Asia/Pac, Eucast breakpoints
  % R (resistance): 0%
[6]; Asia/Pac, N=17
  MIC90: ≤ 0.5 µg/mL
[6]; Europe, Eucast breakpoints
  % R (resistance): 3.2%
[6]; Europe, N=158
  MIC90: ≤ 0.5 µg/mL
[6]; L. Amer, CLSI breakpoints
  % R (resistance): 16%
[6]; L. Amer, N=25
  MIC90: > 4 µg/mL
[6]; N America, CLSI breakpoints
  % R (resistance): 1.7%
[6]; N America, N=177
  MIC90: ≤ 0.5 µg/mL
[7]; Asia/Pac, Eucast breakpoints
  % R (resistance): 4%
[7]; Asia/Pac, N=100
  MIC90: ≤ 0.5 µg/mL
[7]; Europe, Eucast breakpoints
  % R (resistance): 2.2%
[7]; Europe, N=183
  MIC90: ≤ 0.5 µg/mL
[7]; L. Amer, CLSI breakpoints
  % R (resistance): 12.3%
[7]; L. Amer, N=57
  MIC90: > 4 µg/mL
[7]; N America, CLSI breakpoints
  % R (resistance): 2.9%
[7]; N America, N=210
  MIC90: ≤ 0.5 µg/mL
[8]; Asia/Pac, Eucast breakpoints
  % R (resistance): 20.6%
[8]; Asia/Pac, N=63
  MIC90: > 4 µg/mL
[8]; Europe, Eucast breakpoints
  % R (resistance): 22.2%
[8]; Europe, N=72
  MIC90: > 4 µg/mL
[8]; L. Amer, CLSI breakpoints
  % R (resistance): 31%
[8]; L. Amer, N=42
  MIC90: > 4 µg/mL
[8]; N America, CLSI breakpoints
  % R (resistance): 19.5%
[8]; N America, N=77
  MIC90: > 4 µg/mL
[9]; Asia/Pac, Eucast breakpoints
  % R (resistance): 1.9%
[9]; Asia/Pac, N=52
  MIC90: ≤ 0.5 µg/mL
[9]; Europe, Eucast breakpoints
  % R (resistance): 73%
[9]; Europe, N=82
  MIC90: 1 µg/mL (≈ 2.77 µM)
[9]; L. Amer, CLSI breakpoints
  % R (resistance): 9.5%
[9]; L. Amer, N=42
  MIC90: 4 µg/mL (≈ 11.1 µM)
[9]; N America, CLSI breakpoints
  % R (resistance): 1%
[9]; N America, N=101
  MIC90: ≤ 0.5 µg/mL
[10]; Asia/Pac, Eucast breakpoints
  % R (resistance): 79.3%
[10]; Asia/Pac, N=275
  MIC90: > 4 µg/mL
[10]; Europe, Eucast breakpoints
  % R (resistance): 74.5%
[10]; Europe, N=145
  MIC90: > 4 µg/mL
[10]; L. Amer, CLSI breakpoints
  % R (resistance): 86.9%
[10]; L. Amer, N=275
  MIC90: > 4 µg/mL
[10]; N America, CLSI breakpoints
  % R (resistance): 68.8%
[10]; N America, N=154
  MIC90: > 4 µg/mL
[11]; Asia/Pac, Eucast breakpoints
  % R (resistance): 11.1%
[11]; Europe, Eucast breakpoints
  % R (resistance): 41.9%
[11]; Europe, N=43
  MIC90: > 4 µg/mL
[11]; L. Amer, CLSI breakpoints
  % R (resistance): 33.3%
[11]; N America, CLSI breakpoints
  % R (resistance): 14.3%
[11]; N America, N=42
  MIC90: > 4 µg/mL
[12]; Asia/Pac, Eucast breakpoints
  % R (resistance): 5.9%
[12]; Asia/Pac, N=641
  MIC90: ≤ 0.5 µg/mL
[12]; Europe, Eucast breakpoints
  % R (resistance): 5.5%
[12]; Europe, N=2109
  MIC90: ≤ 0.5 µg/mL
[12]; L. Amer, CLSI breakpoints
  % R (resistance): 2.2%
[12]; L. Amer, N=590
  MIC90: ≤ 0.5 µg/mL
[12]; N America, CLSI breakpoints
  % R (resistance): 10.8%
[12]; N America, N=2373
  MIC90: 4 µg/mL (≈ 11.1 µM)
[13]; Asia/Pac, Eucast breakpoints
  % R (resistance): 70.6%
[13]; Asia/Pac, N=428
  MIC90: > 4 µg/mL
[13]; Europe, Eucast breakpoints
  % R (resistance): 86.4%
[13]; Europe, N=750
  MIC90: > 4 µg/mL
[13]; L. Amer, CLSI breakpoints
  % R (resistance): 84%
[13]; L. Amer, N=506
  MIC90: > 4 µg/mL
[13]; N America, CLSI breakpoints
  % R (resistance): 67.3%
[13]; N America, N=2508
  MIC90: > 4 µg/mL
[14]; Asia/Pac, Eucast breakpoints
  % R (resistance): 16.7%
[14]; Asia/Pac, N=18
  MIC90: > 4 µg/mL
[14]; Europe, Eucast breakpoints
  % R (resistance): 9.7%
[14]; Europe, N=185
  MIC90: 2 µg/mL (≈ 5.53 µM)
[14]; L. Amer, CLSI breakpoints
  % R (resistance): 6%
[14]; L. Amer, N=67
  MIC90: ≤ 0.5 µg/mL
[14]; N America, CLSI breakpoints
  % R (resistance): 23.6%
[14]; N America, N=191
  MIC90: > 4 µg/mL
[15]; Asia/Pac, Eucast breakpoints
  % R (resistance): 55.8%
[15]; Asia/Pac, N=77
  MIC90: > 4 µg/mL
[15]; Europe, Eucast breakpoints
  % R (resistance): 64.9%
[15]; Europe, N=510
  MIC90: > 4 µg/mL
[15]; L. Amer, CLSI breakpoints
  % R (resistance): 57.8%
[15]; L. Amer, N=301
  MIC90: > 4 µg/mL
[15]; N America, CLSI breakpoints
  % R (resistance): 64.9%
[15]; N America, N=461
  MIC90: > 4 µg/mL
[16]; Asia/Pac, N=214
  MIC90: > 4 µg/mL
[16]; Europe, N=669
  MIC90: > 4 µg/mL
[16]; L. Amer
  % R (resistance): 30%
[16]; L. Amer, N=290
  MIC90: > 4 µg/mL
[16]; N America
  % R (resistance): 29.3%
[16]; N America, N=863
  MIC90: > 4 µg/mL
[17]; Asia/Pac, N=1
  range of MICs (N <10, shown instead of MIC90): >4
[17]; L. Amer
  % R (resistance): 100%
[17]; L. Amer, N=7
  range of MICs (N <10, shown instead of MIC90): > 4
[17]; N America
  % R (resistance): 97.4%
[17]; N America, N=38
  MIC90: > 4 µg/mL
[18]; Asia/Pac, N=106
  MIC90: > 4 µg/mL
[18]; Europe, N=303
  MIC90: > 4 µg/mL
[18]; L. Amer
  % R (resistance): 78.4%
[18]; L. Amer, N=51
  MIC90: > 4 µg/mL
[18]; N America
  % R (resistance): 68.7%
[18]; N America, N=115
  MIC90: > 4 µg/mL
[19]; Asia/Pac, N=24
  MIC90: > 4 µg/mL
[19]; Europe, N=71
  MIC90: > 4 µg/mL
[19]; L. Amer
  % R (resistance): 100%
[19]; L. Amer, N=41
  MIC90: > 4 µg/mL
[19]; N America
  % R (resistance): 99.6%
[19]; N America, N=478
  MIC90: > 4 µg/mL
